The experiment deals with B6C3F1 mice, B16 melanoma ip, median survival T/C. The experiment is described as follows: NCI In Vivo Anticancer Drug Screen. Data for tumor model B16 Melanoma (intraperitoneal) in B6C3F1 mice. The conditions noted are these: endpoint: median survival time, higher = longer survival. The method, boiled down: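 Values are T/C ratios: the measurement in treated animals divided by that in vehicle-treated controls, using survival or tumor size in mice carrying transplantable tumors.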

[1] abbreviates: dose: 3.12 mg/kg/injection, schedule: Q01DX009 (ip), vehicle: saline with Tween-80.
Setting [2] is: dose: 6.25 mg/kg/injection, schedule: Q01DX009 (ip), vehicle: saline with Tween-80.
Setting [3] is: dose: 12.5 mg/kg/injection, schedule: Q01DX009 (ip), vehicle: saline with Tween-80.
[4] abbreviates: dose: 25.0 mg/kg/injection, schedule: Q01DX009 (ip), vehicle: Klucel (hydroxypropylcellulose) (HPC).
Where [5] appears, read: dose: 25.0 mg/kg/injection, schedule: Q01DX009 (ip), vehicle: saline with Tween-80.
The mark [6] stands for this setting: dose: 50.0 mg/kg/injection, schedule: Q01DX009 (ip), vehicle: saline with Tween-80.
The mark [7] stands for this setting: dose: 6.25 mg/kg/injection, schedule: Q01DX009 (ip), vehicle: saline.
Where [8] appears, read: dose: 12.5 mg/kg/injection, schedule: Q01DX009 (ip), vehicle: saline.
The mark [9] stands for this setting: dose: 25.0 mg/kg/injection, schedule: Q01DX009 (ip), vehicle: saline.
Setting [10] is: dose: 50.0 mg/kg/injection, schedule: Q01DX009 (ip), vehicle: saline.

The results in this text go back to PubChem BioAssay AID200 (DTP/NCI, 2004).

Values joined by “and” are separate entries in the source; they are usually repeats but may differ in a detail not shown here. Equal values may be shown once. Toxic doses and inconclusive results are not listed.

As to `O=c1s[se]c2ccccc12`, the T/C runs as follows: (dose: 1.56 mg/kg/injection, schedule: Q01DX009 (ip), vehicle: Klucel (hydroxypropylcellulose) (HPC)) 94 % of control; (dose: 1.56 mg/kg/injection, schedule: Q01DX009 (ip), vehicle: saline with Tween-80) 104 % of control; (dose: 3.12 mg/kg/injection, schedule: Q01DX009 (ip), vehicle: Klucel (hydroxypropylcellulose) (HPC)) 108 % of control; under setting [1], 114 % of control; (dose: 6.25 mg/kg/injection, schedule: Q01DX009 (ip), vehicle: Klucel (hydroxypropylcellulose) (HPC)) 97 % of control; under setting [2], 87 % of control. Further, the T/C is 98 % of control (dose: 12.5 mg/kg/injection, schedule: Q01DX009 (ip), vehicle: Klucel (hydroxypropylcellulose) (HPC)); 103 % of control under setting [3]; 94 % of control under setting [4]; 105 % of control under setting [5]; 92 % of control under setting [6].
With `CS(=O)(=O)CS(=O)(=O)OCCF`, the T/C (dose: 3.12 mg/kg/injection, schedule: Q01DX009 (ip), vehicle: saline) is 107 % of control; the T/C (dose: 5.4 mg/kg/injection, schedule: Q01DX009 (ip), vehicle: saline) is 100 % of control; the T/C under setting [7] was 116 % of control; the T/C (dose: 9.0 mg/kg/injection, schedule: Q01DX009 (ip), vehicle: saline) is 110 % of control and 100 % of control; the T/C (dose: 15.0 mg/kg/injection, schedule: Q01DX009 (ip), vehicle: saline) is 113 % of control and 119 % of control; the T/C (dose: 41.67 mg/kg/injection, schedule: Q01DX009 (ip), vehicle: saline) is 121 % of control and 216 % of control.
Consider `Clc1ccc2c(Cl)ncnc2c1`, for which the T/C is, setting by setting: under setting [8], 96 % of control; under setting [9], 100 % of control; under setting [6], 93 % of control; under setting [10], 100 % of control.
As for `Nc1cc2c3c(cccc3c1)C(=O)N(CCN1CCCC1)C2=O`, the T/C is 113 % of control and 106 % of control under setting [1]; 97 % of control and 98 % of control under setting [2]; 115 % of control and 107 % of control under setting [3]; 122 % of control under setting [6].
With `CO[C@@]12[C@H](COC(N)=O)C3=C(C(=O)C(C)=C(N)C3=O)N1C[C@@H]1N[C@@H]12`, the T/C is, setting by setting: (dose: 0.12 mg/kg/injection, schedule: Q01DX009 (ip), vehicle: Klucel (hydroxypropylcellulose) (HPC)) 109 % of control; (dose: 0.12 mg/kg/injection, schedule: Q01DX009 (ip), vehicle: saline with Tween-80) 119 % of control; (dose: 0.12 mg/kg/injection, schedule: Q01DX009 (ip), vehicle: saline) 120 % of control and 100 % of control; (dose: 0.13 mg/kg/injection, schedule: Q01DX009 (ip), vehicle: water) 109 % of control and 110 % of control; (dose: 0.25 mg/kg/injection, schedule: Q01DX005 (ip), vehicle: saline) 124 % of control; (dose: 0.25 mg/kg/injection, schedule: Q01DX005 (iv), vehicle: saline) 107 % of control. The T/C is 116 % of control (dose: 0.25 mg/kg/injection, schedule: Q01DX009 (ip), vehicle: Klucel (hydroxypropylcellulose) (HPC)); 115 % of control (dose: 0.25 mg/kg/injection, schedule: Q01DX009 (ip), vehicle: saline); 124 % of control (dose: 0.25 mg/kg/injection, schedule: Q01DX009 (ip), vehicle: water); 122 % of control (dose: 0.5 mg/kg/injection, schedule: Q01DX001 (ip), vehicle: clinical formulation); 166 % of control (dose: 0.5 mg/kg/injection, schedule: Q01DX005 (ip), vehicle: saline); 86 % of control (dose: 0.5 mg/kg/injection, schedule: Q01DX005 (iv), vehicle: saline). Also, the T/C is 116 % of control (dose: 0.5 mg/kg/injection, schedule: Q01DX009 (ip), vehicle: Klucel (hydroxypropylcellulose) (HPC)); 166 % of control (dose: 0.5 mg/kg/injection, schedule: Q01DX009 (ip), vehicle: saline with Tween-80); 161 % of control (dose: 0.5 mg/kg/injection, schedule: Q01DX009 (ip), vehicle: saline); 150 % of control (dose: 0.5 mg/kg/injection, schedule: Q01DX009 (ip), vehicle: water); 121 % of control (dose: 0.75 mg/kg/injection, schedule: Q04DX003 (ip), vehicle: clinical formulation); 165 % of control (dose: 1.0 mg/kg/injection, schedule: Q01DX001 (ip), vehicle: saline). Moreover, the T/C by setting is: (dose: 1.0 mg/kg/injection, schedule: Q01DX001 (iv), vehicle: saline) 93 % of control; (dose: 1.0 mg/kg/injection, schedule: Q01DX005 (ip), vehicle: saline) 168 % of control; (dose: 1.0 mg/kg/injection, schedule: Q01DX009 (ip), vehicle: Klucel (hydroxypropylcellulose) (HPC)) 155 % of control; (dose: 1.0 mg/kg/injection, schedule: Q01DX009 (ip), vehicle: saline with Tween-80) 191 % of control; (dose: 1.0 mg/kg/injection, schedule: Q01DX009 (ip), vehicle: saline) 185 % of control; (dose: 1.0 mg/kg/injection, schedule: Q01DX009 (ip), vehicle: water) 156 % of control and 173 % of control. Also, the T/C by setting is: (dose: 1.0 mg/kg/injection, schedule: Q04DX003 (ip), vehicle: clinical formulation) 156 % of control and 160 % of control; (dose: 1.25 mg/kg/injection, schedule: Q01DX009 (oral), vehicle: water) 91 % of control; (dose: 2.0 mg/kg/injection, schedule: Q01DX001 (ip), vehicle: clinical formulation) 159 % of control; (dose: 2.0 mg/kg/injection, schedule: Q01DX001 (iv), vehicle: saline) 118 % of control; (dose: 2.0 mg/kg/injection, schedule: Q01DX005 (ip), vehicle: saline) 179 % of control; (dose: 2.0 mg/kg/injection, schedule: Q01DX009 (ip), vehicle: water) 190 % of control. Also, the T/C runs as follows: (dose: 2.0 mg/kg/injection, schedule: Q04DX003 (ip), vehicle: clinical formulation) 190 % of control and 195 % of control; (dose: 2.5 mg/kg/injection, schedule: Q01DX009 (oral), vehicle: water) 102 % of control; (dose: 3.0 mg/kg/injection, schedule: Q04DX003 (ip), vehicle: clinical formulation) 203 % of control; (dose: 4.0 mg/kg/injection, schedule: Q01DX001 (ip), vehicle: clinical formulation) 193 % of control; (dose: 4.0 mg/kg/injection, schedule: Q01DX001 (ip), vehicle: saline) 176 % of control; (dose: 4.0 mg/kg/injection, schedule: Q01DX001 (iv), vehicle: saline) 115 % of control. The T/C runs as follows: (dose: 4.0 mg/kg/injection, schedule: Q04DX003 (ip), vehicle: clinical formulation) 239 % of control; (dose: 8.0 mg/kg/injection, schedule: Q01DX001 (ip), vehicle: clinical formulation) 164 % of control; (dose: 8.0 mg/kg/injection, schedule: Q01DX001 (ip), vehicle: saline) 216 % of control.
Consider `CCN(CC)CCNc1ccc(C)c2sc3ccccc3c(=O)c12`, for which the T/C by setting is: under setting [7], 103 % of control; under setting [8], 100 % of control; under setting [9], 104 % of control; under setting [10], 104 % of control; (dose: 100.0 mg/kg/injection, schedule: Q01DX009 (ip), vehicle: saline) 118 % of control.
As for `NCCCCC(NC(=O)OCC1c2ccccc2-c2ccccc21)C(=O)O` (centres undefined), the T/C under setting [4] is 92 % of control; the T/C (dose: 50.0 mg/kg/injection, schedule: Q01DX009 (ip), vehicle: Klucel (hydroxypropylcellulose) (HPC)) was 101 % of control; the T/C (dose: 100.0 mg/kg/injection, schedule: Q01DX009 (ip), vehicle: Klucel (hydroxypropylcellulose) (HPC)) was 97 % of control and 100 % of control.
As for `Oc1cc(O)cc(/C=C/c2ccc(O)c(O)c2)c1`, the T/C is 118 % of control (dose: 6.25 mg/kg/injection, schedule: Q01DX009 (ip), vehicle: DMSO); 111 % of control (dose: 12.5 mg/kg/injection, schedule: Q01DX009 (ip), vehicle: DMSO); 117 % of control (dose: 50.0 mg/kg/injection, schedule: Q01DX009 (ip), vehicle: DMSO); 113 % of control and 96 % of control (dose: 100.0 mg/kg/injection, schedule: Q01DX009 (ip), vehicle: DMSO).
`Nc1nc(N)c(N=O)c(Nc2ccc(Br)cc2)n1`: the T/C is, setting by setting: under setting [5], 114 % of control; under setting [6], 107 % of control; (dose: 100.0 mg/kg/injection, schedule: Q01DX009 (ip), vehicle: saline with Tween-80) 106 % of control.
